Assay results published in US20140005181A1, “SMALL MOLECULE ANTAGONISTS OF THE APELIN RECEPTOR FOR THE TREATMENT OF DISEASE” (Sanford-Burnham Medical Research Institute, priority 2012, published 2014).
Where “and” joins values, the source holds several entries; their conditions need not be identical. Equal values may be shown once.

How the values were obtained:
APJ = target: T1, APJ (Homo sapiens, UniProt P35414); experiment: APJ DiscoveRx PathHunter β-arrestin assay (antagonism of apelin-13); assay type: cell-based; parameters: host or cells: Angiotensin II receptor-like 1 (AGTRL-1) Cell Line (PathHunter); conditions: for IC50: β-arrestin assay, n = 4 unless noted in parentheses, read-out: APJ Potency IC50 (μM) Ave. ± S.E.M.
T1 sequence (P35414 1-380): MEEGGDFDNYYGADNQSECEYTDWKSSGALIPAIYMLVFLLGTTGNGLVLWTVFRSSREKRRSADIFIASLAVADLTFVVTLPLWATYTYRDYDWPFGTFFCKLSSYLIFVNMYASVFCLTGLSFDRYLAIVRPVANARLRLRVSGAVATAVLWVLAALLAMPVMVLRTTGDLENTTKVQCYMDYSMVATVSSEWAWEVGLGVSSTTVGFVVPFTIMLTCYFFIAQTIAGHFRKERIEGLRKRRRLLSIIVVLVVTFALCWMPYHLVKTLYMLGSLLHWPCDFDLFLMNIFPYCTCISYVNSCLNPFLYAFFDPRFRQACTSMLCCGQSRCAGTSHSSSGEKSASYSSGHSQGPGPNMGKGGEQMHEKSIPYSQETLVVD
Method: The assay was incubated for 90 mins at room temperature, and then developed with 3 μL of detection reagent (PathHunter Detection Reagents (DiscoveRx, Cat#93-0001)) for 60 mins and luminescence read on a Perkin Elmer ViewLux.
(§1) All assays in Table 2, with the exception of the […] counterscreen, utilize the DiscoveRx PathHunter® β-arrestin assay technology. Unlike imaging or other second messenger assays, the DiscoveRx β-arrestin assay allows for a direct measure of GPCR activation by detection of β-arrestin binding to the APJ, and in the case of the counterscreen, the AT1 receptor. […] In cells that stably express these fusion proteins, ligand stimulation results in the interaction of β-arrestin and the ProLink-tagged GPCR, forcing the complementation of the two β-galactosidase fragments and resulting in the formation of a functional enzyme that converts substrate to detectable luminescent signal.
Assay was incubated for 90 mins at room temperature, and then developed with 3 μL of detection reagent for 60 mins and luminescence read on a Perkin Elmer ViewLux. Initial actives were retested in duplicate at the 20 μM test concentration, and reconfirmed hits retested in full dose-response for compounds from resupplied MLSMR DMSO stock solutions.

[1] = target: T2, Angiotensin receptor 1 (AT1) (Homo sapiens, UniProt P30556); experiment: AT1 DiscoveRx PathHunter β-arrestin counterscreen (antagonism of angiotensin II); assay type: cell-based; conditions: β-arrestin assay, n = 4 unless noted in parentheses; read-out: AT1 Potency IC50 (μM) Ave. ± S.E.M.
T2 construct: host or cells: Angiotensin receptor 1 (AT1) Cell Line (PathHunter)
T2 sequence (P30556 1-359): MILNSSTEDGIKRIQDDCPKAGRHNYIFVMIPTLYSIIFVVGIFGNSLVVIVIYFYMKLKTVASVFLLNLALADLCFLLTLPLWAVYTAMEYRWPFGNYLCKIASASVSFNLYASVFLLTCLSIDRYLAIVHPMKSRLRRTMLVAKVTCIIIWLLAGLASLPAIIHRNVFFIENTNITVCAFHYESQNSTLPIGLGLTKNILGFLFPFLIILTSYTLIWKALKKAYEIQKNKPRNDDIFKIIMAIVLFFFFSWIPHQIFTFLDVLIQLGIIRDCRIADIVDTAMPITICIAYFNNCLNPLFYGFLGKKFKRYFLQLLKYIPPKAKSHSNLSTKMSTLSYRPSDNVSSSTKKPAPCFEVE
Text: as §1
Next, varying volumes of stock test compounds in DMSO were transferred to each well to achieve appropriate dose response concentrations and range. DMSO was backfilled into each test compound well to a total volume of 80 nL to achieve equal concentration of DMSO in all wells. This was followed by an addition of 1 μL of 300 nM reference agonist, Angiotensin II, to the negative and test compound wells, and 1 μL of assay media to positive control wells. The assay was incubated for 90 mins at room temperature, and then developed with 3 μL of detection reagent for 60 mins and luminescence read on a Perkin Elmer ViewLux.

| SI = Selectivity Index: (IC50 AT1)/(IC50 APJ) (APJ) | IC50 (APJ) | IC50 [1] | SMILES |
| --- | --- | --- | --- |
| >13 | 6.2 ± 0.77 µM | – | O=C(Oc1coc(CSc2ncccn2)cc1=O)c1ccc(Cl)c([N+](=O)[O-])c1 [Compound 2] |
| >11 and >7.2 | 7.25 µM and 10.9 µM | – | Cc1ccc(C(=O)Oc2coc(CSc3ncccn3)cc2=O)cc1[N+](=O)[O-] [Compound 3] |
| – | 75.7 µM | – | O=C(Oc1coc(CSc2ncccn2)cc1=O)c1cccc([N+](=O)[O-])c1 [Compound 4] |
| – | 54.5 µM | – | O=C(Oc1coc(CSc2ncccn2)cc1=O)c1ccc(Cl)cc1 [Compound 5] |
| >12 and >8 | 6.59 µM and 9.77 µM | > 79 µM | N#Cc1ccc(C(=O)Oc2coc(CSc3ncccn3)cc2=O)cc1 [Compound 7] |
| – | 29 µM | – | O=C(Oc1coc(CSc2ncccn2)cc1=O)c1ccc(C(F)(F)F)cc1 [Compound 8] |
| – | 18.2 µM | – | O=C(Oc1coc(CSc2ncccn2)cc1=O)c1ccc(Br)cc1 [Compound 9] |
| – | 51 µM | 60.1 ± 1.35 µM | O=C(Oc1coc(CSc2ncccn2)cc1=O)c1cc([N+](=O)[O-])ccc1Cl [Compound 21] |
| – | 72.2 µM | – | Cc1c(C(=O)Oc2coc(CSc3ncccn3)cc2=O)cccc1[N+](=O)[O-] [Compound 22] |
| >17 | 4.7 µM | – | Cc1ccnc(SCc2cc(=O)c(OC(=O)c3ccc(C)c([N+](=O)[O-])c3)co2)n1 [Compound 30] |
| – | 59.2 µM | – | Cc1ccnc(SCc2cc(=O)c(OC(=O)c3cccc([N+](=O)[O-])c3)co2)n1 [Compound 31] |
| >25 and >23 | 3.11 µM and 4.32 µM | – | Cc1ccnc(SCc2cc(=O)c(OC(=O)c3ccc([N+](=O)[O-])cc3)co2)n1 [Compound 33] |
| >9 and >7 | 8.51 µM and 11.5 µM | – | Cc1ccnc(SCc2cc(=O)c(OC(=O)c3ccc(C#N)cc3)co2)n1 [Compound 34] |
| – | 20.6 µM | – | Cc1ccnc(SCc2cc(=O)c(OC(=O)c3ccc(C(F)(F)F)cc3)co2)n1 [Compound 35] |
| – | 39.9 ± 8.65 µM | – | Cc1ccnc(SCc2cc(=O)c(OC(=O)c3ccc(S(=O)(=O)N4CCCC4)cc3)co2)n1 [Compound 39] |
| – | 58.8 µM | – | Cc1ccnc(SCc2cc(=O)c(OC(=O)c3cc(Cl)ccc3[N+](=O)[O-])co2)n1 [Compound 40] |
| – | 74.1 µM | – | Cc1ccnc(SCc2cc(=O)c(OC(=O)c3cc([N+](=O)[O-])ccc3Cl)co2)n1 [Compound 41] |
| – | – | > 79 µM | Cc1ccnc(SCc2cc(=O)c(OC(=O)c3ccccc3Cl)co2)n1 [Compound 42] |
| – | > 79 µM | > 79 µM | Cc1cccc(C(=O)Oc2coc(CSc3nccc(C)n3)cc2=O)c1 [Compound 44] |
| – | > 79 µM | > 79 µM | Cc1ccnc(SCc2cc(=O)c(OC(=O)c3ccccc3C)co2)n1 [Compound 46] |
| >15 | 5.45 ± 1.47 µM | > 79 µM | Cc1cc(C)nc(SCc2cc(=O)c(OC(=O)c3ccc(Cl)c([N+](=O)[O-])c3)co2)n1 [Compound 49] |
| >3 | 25.3 ± 5.8 µM | > 79 µM | Cc1cc(C)nc(SCc2cc(=O)c(OC(=O)c3ccc(C)c([N+](=O)[O-])c3)co2)n1 [Compound 50] |
| – | > 79 µM | > 79 µM | Cc1cc(C)nc(SCc2cc(=O)c(OC(=O)c3ccc(S(=O)(=O)N(C)C)cc3)co2)n1 [Compound 51] |
| – | > 79 µM | 49.7 ± 6.74 µM | Cc1cc(C)nc(SCc2cc(=O)c(OC(=O)c3cc(Cl)ccc3[N+](=O)[O-])co2)n1 [Compound 52] |
| – | 44.5 µM | 49.7 ± 6.74 µM | Cc1cc(C)nc(SCc2cc(=O)c(OC(=O)c3cc([N+](=O)[O-])ccc3Cl)co2)n1 [Compound 53] |
| – | > 79 µM | > 79 µM | Cc1cc(C)nc(SCc2cc(=O)c(OC(=O)c3cccc([N+](=O)[O-])c3C)co2)n1 [Compound 54] |
| – | > 79 µM | > 79 µM | Cc1cc(C)nc(SCc2cc(=O)c(OC(=O)c3ccc(-c4nccs4)cc3)co2)n1 [Compound 55] |
| – | > 79 µM | > 79 µM | O=c1cc(CSc2ccccc2)occ1O [Compound 56] |
| – | > 79 µM | > 79 µM | O=c1cc(CSc2ccc(F)cc2)occ1O [Compound 57] |
| – | > 79 µM | > 79 µM | O=c1cc(CSc2ncccn2)occ1O [Compound 58] |

| SMILES | SI = Selectivity Index: (IC50 AT1)/(IC50 APJ) (APJ) | IC50 (APJ) | IC50 [1] |
| --- | --- | --- | --- |
| O=C(Oc1coc(CSc2ccc(Cl)cc2)cc1=O)c1ccc(Cl)c([N+](=O)[O-])c1 [Compound 63] | >17 | 4.53 ± 0.66 µM | > 79 µM |
| Cc1ccnc(SCc2cc(=O)c(OCc3ccccc3)co2)n1 [Compound 66] | – | > 79 µM | > 79 µM |
| Cc1ccnc(SCc2cc(=O)c(OCc3ccc(Cl)c([N+](=O)[O-])c3)co2)n1 [Compound 67] | – | > 79 µM | > 79 µM |
| Cc1ccnc(SCc2cc(=O)c(OC(=O)C(C)(C)C)co2)n1 [Compound 68] | – | > 79 µM | > 79 µM |
| Cc1cc(C)nc(SCc2cc(=O)c(OS(=O)(=O)c3ccccc3)co2)n1 [Compound 71] | – | > 79 µM | > 79 µM |
| Cc1cc(C)nc(SCc2cc(=O)c(OS(=O)(=O)c3ccc([N+](=O)[O-])cc3)co2)n1 [Compound 72] | – | > 79 µM | > 79 µM |
| Cc1ccnc(SCc2cc(=O)c(NC(=O)c3ccccc3)co2)n1 [Compound 73] | – | > 79 µM | > 79 µM |
| Cc1ccnc(SCc2cc(=O)c(NC(=O)c3ccc([N+](=O)[O-])cc3)co2)n1 [Compound 74] | – | > 79 µM | > 79 µM |
| Cc1ccnc(SCc2cc(=O)c(OC(=O)c3ccco3)co2)n1 [Compound 75] | – | > 79 µM | > 79 µM |
| Cc1ccnc(SCc2cc(=O)c(OC(=O)c3ccsc3)co2)n1 [Compound 76] | – | > 79 µM | > 79 µM |
| Cc1ccnc(SCc2cc(=O)c(OC(=O)c3ccc([N+](=O)[O-])o3)co2)n1 [Compound 77] | – | > 79 µM | > 79 µM |
| Cc1ccnc(SCc2cc(=O)c(OC(=O)c3cnco3)co2)n1 [Compound 78] | – | > 79 µM | > 79 µM |
